GI50 and TGI data for 7 compounds are collected here from PubChem BioAssay (NCI).

Test systems include NCI-H23 lung; OVCAR-3 ovarian; UACC-62 melanoma; HCC-2998 colon; HOP-62 NSCLC; MDA-MB-435; BT-549 breast; HT29 colon; IGROV1 ovarian; HCT-15 colon.
Common to all, as to assay: growth of human tumour cells (NCI), 48 h

“And” between values parts separate entries of the source, which are not always exact repeats. Equal entries are not always repeated.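 These data come from cells grown in 96-well plates and exposed to compound for 48 hours at five concentrations. Abbreviation: GI50, concentration required for 50% inhibition of growth. TGI: concentration producing complete growth inhibition.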 Where only a bound is given, the exact number is not on record here.

`CNCc1cccc2c1OCCOCCOCCNS(=O)(=O)c1ccc(cc1)-c1cnc(N)c(n1)C(=O)N2`: the GI50 is 2.22 µM in the assay on NCI-H23 lung; 1.12 µM in the assay with OVCAR-3 ovarian; 1.61 µM with UACC-62 melanoma; 1.79 µM in the assay with HCC-2998 colon; 1.27 µM in the assay on HOP-62 NSCLC; 1.35 µM with MDA-MB-435. Also, the GI50 in the assay on BT-549 breast was 1.27 µM; in the assay on HT29 colon, 1.31 µM; in the assay on IGROV1 ovarian it was 0.513 µM; in the assay on HCT-15 colon, 4.86 µM. Further, the TGI in the assay on NCI-H23 lung turned out to be 7.72 µM; with OVCAR-3 ovarian, 2.61 µM; in the assay on UACC-62 melanoma, 2.99 µM; in the assay on HCC-2998 colon it was 4.69 µM; in the assay on HOP-62 NSCLC, 2.96 µM; in the assay on MDA-MB-435, 2.74 µM. Besides, the TGI stood at 8.14 µM in the assay on BT-549 breast, 3.76 µM in the assay on HT29 colon, 3.89 µM with IGROV1 ovarian and 18.9 µM with HCT-15 colon.
In the case of `COc1nc(N)nc2nc[nH]c12`, the GI50 in the assay with NCI-H23 lung is > 800 µM and 888 µM; in the assay with OVCAR-3 ovarian, 744 µM and > 856 µM; with UACC-62 melanoma it was 441 µM and 349 µM; with HCC-2998 colon, > 800 µM and 574 µM; in the assay with HOP-62 NSCLC it was 576 µM and 582 µM; in the assay on MDA-MB-435, over 801 µM. For the same compound, the GI50 in the assay with BT-549 breast is 580 µM; in the assay on HT29 colon, over 800 µM; in the assay with IGROV1 ovarian, 460 µM and 529 µM; with HCT-15 colon, over 800 µM. For the same compound, the TGI in the assay with NCI-H23 lung was over 1000 µM; in the assay with OVCAR-3 ovarian, 500 µM and 800 µM and > 1000 µM; in the assay with UACC-62 melanoma, 429 µM and 800 µM and > 1000 µM; in the assay with HCC-2998 colon it was over 868 µM; with HOP-62 NSCLC it was 180 µM and 800 µM and > 923 µM; in the assay with MDA-MB-435, over 1000 µM. For the same compound, the TGI with BT-549 breast is 500 µM and > 1000 µM; in the assay with HT29 colon it was 500 µM and > 800 µM and > 1000 µM; in the assay with IGROV1 ovarian, 454 µM and 800 µM and > 1000 µM; in the assay on HCT-15 colon it was 500 µM and > 800 µM and > 1000 µM.
Consider `Cn1cc(-c2ccc3c(c2)ncn3-c2cc(NS(=O)(=O)C3CC3)cc(-c3ccc(F)cc3F)c2)cn1`, for which the GI50 in the assay on NCI-H23 lung is 20.6 µM; in the assay on OVCAR-3 ovarian it was 14.5 µM; in the assay on UACC-62 melanoma it was 25.5 µM; in the assay on HCC-2998 colon, 22.7 µM; in the assay on HOP-62 NSCLC it was 14.1 µM; in the assay with MDA-MB-435, 21.9 µM. The GI50 with BT-549 breast is 4.22 µM; with HT29 colon, 10.3 µM; with IGROV1 ovarian it was 3.49 µM; with HCT-15 colon it was 7.4 µM. For the same compound, the TGI with NCI-H23 lung was over 100 µM; with OVCAR-3 ovarian, 62.3 µM; in the assay on UACC-62 melanoma, 73.1 µM; in the assay on HCC-2998 colon, 80.1 µM; in the assay on HOP-62 NSCLC it was over 100 µM; in the assay with MDA-MB-435, over 100 µM. Moreover, the TGI was 56.7 µM in the assay on BT-549 breast, 38.3 µM in the assay with HT29 colon, 61.9 µM with IGROV1 ovarian and over 100 µM with HCT-15 colon.
Regarding `N=C(N)SCc1ccc(Cl)c2ccccc12` (tested in a mixture with another compound), the TGI in the assay on NCI-H23 lung was 29 µM and 29.2 µM; with OVCAR-3 ovarian it was 23.6 µM and 25 µM; with UACC-62 melanoma, 26.4 µM and 25.6 µM; in the assay on HCC-2998 colon it was 6.66 µM and 4.89 µM; with HOP-62 NSCLC it was 24.3 µM and 30.5 µM; with MDA-MB-435 it was 21.5 µM and 22.2 µM. Moreover, the TGI in the assay on BT-549 breast was 29.5 µM and 30.8 µM; with HT29 colon, 24.2 µM and 26.4 µM; in the assay on IGROV1 ovarian, 29 µM and 30.8 µM; with HCT-15 colon, 32.8 µM and 36.8 µM.
Take `N#C[Se]CCN1C(=O)c2ccccc2C1=O`: the GI50 was 2.93 µM with NCI-H23 lung; 2.73 µM in the assay with OVCAR-3 ovarian; 1.52 µM in the assay on UACC-62 melanoma; 3.87 µM with HCC-2998 colon; 2.17 µM with HOP-62 NSCLC; 1.73 µM with MDA-MB-435. Also, the GI50 was 1.66 µM in the assay on BT-549 breast, 2.84 µM with HT29 colon, 2.02 µM in the assay on IGROV1 ovarian and 3.58 µM in the assay on HCT-15 colon. Further, the TGI in the assay with NCI-H23 lung came to 18.8 µM; in the assay with OVCAR-3 ovarian, 9.39 µM; with UACC-62 melanoma, 3.74 µM; with HCC-2998 colon it was 15.2 µM; in the assay on HOP-62 NSCLC, 6.45 µM; with MDA-MB-435 it was 3.83 µM. Further, the TGI in the assay on BT-549 breast was 3.53 µM; in the assay on HT29 colon, 8.29 µM; with IGROV1 ovarian, 6.12 µM; in the assay with HCT-15 colon, 14.7 µM.
`COc1cc2c3c(n(CCCN)c(=O)c2cc1OC)-c1ccc(N)cc1C3=O`: the GI50 is 1.62 µM in the assay with NCI-H23 lung; 2.12 µM with OVCAR-3 ovarian; 1.08 µM in the assay on UACC-62 melanoma; 0.806 µM in the assay with HCC-2998 colon; 1.55 µM with HOP-62 NSCLC; 3.06 µM in the assay with MDA-MB-435. Further, the GI50 with BT-549 breast was 1.97 µM; with HT29 colon it was 2.41 µM; in the assay with IGROV1 ovarian, 1.43 µM; in the assay on HCT-15 colon, 24.4 µM. For the same compound, the TGI in the assay with NCI-H23 lung is 9.75 µM; in the assay with OVCAR-3 ovarian it was over 29.6 µM; in the assay with UACC-62 melanoma it was 10.7 µM; with HCC-2998 colon, 6 µM; in the assay with HOP-62 NSCLC it was 4.92 µM; in the assay with MDA-MB-435, 17 µM. The TGI with BT-549 breast is 8.85 µM; in the assay on HT29 colon it was 18.2 µM; in the assay on IGROV1 ovarian, over 50.4 µM; in the assay with HCT-15 colon, over 100 µM.
With `OC[C@H]1C[C@](O)(c2ccc(F)cc2)[C@@H](c2ccc(F)cc2)O1`, the GI50 in the assay with NCI-H23 lung, in the assay with OVCAR-3 ovarian, in the assay on UACC-62 melanoma, with HCC-2998 colon, in the assay with HOP-62 NSCLC and with MDA-MB-435 was over 100 µM in each case. Moreover, the GI50 in the assay on BT-549 breast is over 100 µM; in the assay on HT29 colon, over 100 µM; with IGROV1 ovarian, 58.3 µM; with HCT-15 colon, over 100 µM. Also, the TGI in the assay with NCI-H23 lung, in the assay with OVCAR-3 ovarian, with UACC-62 melanoma, in the assay with HCC-2998 colon, in the assay on HOP-62 NSCLC and in the assay on MDA-MB-435 was over 100 µM each time. For the same compound, the TGI with BT-549 breast, in the assay on HT29 colon, in the assay on IGROV1 ovarian and in the assay on HCT-15 colon was over 100 µM throughout.
